Like-named read-outs stand apart in the source and are kept apart here. Positions of bridges follow the written chain, without caps; N, C: chain ends. Non-standard residues stand in square brackets, D forms with d. Residues, ends and D or L forms follow the SMILES beside them. R8 = C=CCCCCCC[C@@](C)(N)C(=O)O; S5 = C=CCCC[C@](C)(N)C(=O)O
Experiments:
[1] = system: human red blood cells (RBCs); format: cell-based; details: for % Hemolysis at 50 μg/ml: red cells of human, 1 h
Description: One of the key obstacles that have long impeded the use of AMPs in systemic infections such as sepsis is their tendency to lyse human cells, such as red blood cells (RBCs). Thus, it is critical to minimize hemolytic activity as much as possible to achieve a therapeutic window. […] Of note, in those circumstances where hydrocarbon staples increase hemolytic activity due to increasing hydrophobicity, the alkene moiety can be modified, e.g., by dihydroxylation, to install hydrophilic residues and potentially mitigate hemolysis.
Hemolytic Activity Assay For the determination of hemolytic activity, the following protocol was applied: human blood samples were centrifuged to isolate red blood cells (RBCs), which were then washed and suspended in phosphate-buffered saline to yield a 1% (v/v) suspension. This suspension was then added to serial dilutions of peptide stocks in water in clear round-bottom polypropylene 96-well plates and the plates incubated for 1 hour at 37° C. After incubation, the plates were centrifuged and the supernatant isolated to determine the amount of hemoglobin released using a spectrophotometer (570 nm). The minimum hemolytic concentration (MHC) was determined by assessing the peptide concentration at which there was less than 1% hemoglobin release.

circular dichroism = details: 10 mM phosphate buffer; pH 7.4; ns °C; 100 uM
E. coli = format: cell-based, Escherichia coli; details: for Antimicrobial Activity NIC (μg/ml) E. coli: Table 1, microbroth dilution, refined MHB, 20-24 hours at 37° C.
Protocol: (§1) Antimicrobial Activity Assay The following microbroth dilution protocol was adapted to determine the MIC of each peptide. First, Mueller-Hinton broth (MHB) was passed through an anion exchange column to remove polyanionic species and generate refined MHB. This refined broth was then used in the standard microbroth dilution protocol devised by Hancock et al. for 96 well plates. […] Briefly, bacterial cells were grown overnight in refined MHB at 37° C. and then diluted and allowed to grow again for several hours. Serial dilutions of peptide stocks in water (10 μl) were prepared using clear round-bottom polypropylene 96-well plates. Then 90 μl of bacteria in refined MHB was added to give a final inoculum of 5×10^5 CFU/ml. The plates were then covered with porous tape to reduce evaporation, and incubated for 20-24 hours at 37° C.

B. cereus = format: cell-based
Protocol: as §1

P. aeruginosa = format: cell-based
Protocol: as §1

MRSA = format: cell-based
Protocol: as §1

S. Aureus = format: cell-based
Protocol: as §1

Structure (SMILES)	% Hemolysis at 50 μg/ml [1] [%]	helicity (circular dichroism) [%]	Antimicrobial Activity NIC (μg/ml) E. coli (E. coli) [µg/mL]	also measured
CC(C)C[C@H](NC(=O)[C@H](CC(C)C)NC(=O)[C@H](CCCNC(=N)N)NC(=O)[C@H](Cc1c[nH]cn1)NC(=O)[C@@H](NC(=O)[C@]1(C)CCCC=CCCCCCC[C@@](C)(NC(=O)[C@H](C)NC(=O)[C@H](CCCNC(=N)N)NC(=O)[C@H](CO)NC(=O)[C@H](CO)NC(=O)[C@H](CCCNC(=N)N)NC(=O)[C@@H](N)[C@@H](C)O)C(=O)N[C@@H](CC(C)C)C(=O)N[C@@H](CCC(N)=O)C(=O)N[C@@H](Cc2c[nH]c3ccccc23)C(=O)N2CCC[C@H]2C(=O)N[C@@H](C(C)C)C(=O)NCC(=O)N1)C(C)C)C(=O)N[C@@H](CCCNC(=N)N)C(=O)N[C@@H](CCCCN)C(N)=O [BFStap(i + 7)6] (H-TRSSRA[R8]LQWPVG[S5]VHRLLRK-NH2; staple 7-14)	9.5	7.3	–	Antimicrobial Activity MIC (μg/ml) E. coli (E. coli): 6.25 µg/mL; Antimicrobial Activity MIC (μg/ml) B. cereus (B. cereus): 12.5 µg/mL; Antimicrobial Activity MIC (μg/ml) P. aeruginosa (P. aeruginosa): 12.5 µg/mL; Antimicrobial Activity MIC (μg/ml) MRSA (MRSA): >50 µg/mL; Antimicrobial Activity MIC (μg/ml) S. Aureus (S. Aureus): 25 µg/mL
CC(C)C[C@H](NC(=O)[C@H](CC(C)C)NC(=O)[C@H](CCCNC(=N)N)NC(=O)[C@H](Cc1c[nH]cn1)NC(=O)[C@@H](NC(=O)[C@H](CCCNC(=N)N)NC(=O)CNC(=O)[C@@H](NC(=O)[C@@H]1CCCN1C(=O)[C@H](Cc1c[nH]c2ccccc12)NC(=O)[C@H](CCC(N)=O)NC(=O)[C@H](CC(C)C)NC(=O)[C@]1(C)CCCC=CCCC[C@](C)(NC(=O)[C@H](CCCNC(=N)N)NC(=O)[C@@H](N)[C@@H](C)O)C(=O)N[C@@H](CO)C(=O)N[C@@H](CCCNC(=N)N)C(=O)N[C@@H](C)C(=O)N1)C(C)C)C(C)C)C(=O)N[C@@H](CCCNC(=N)N)C(=O)N[C@@H](CCCCN)C(N)=O [BFStap(i + 4)11] (H-TR[S5]SRA[S5]LQWPVGRVHRLLRK-NH2; staple 3-7)	3.1	8	–	hemolytic activity (in words) [1]: low hemolytic activity; Antimicrobial Activity MIC (μg/ml) E. coli (E. coli; Table 2): 6.25 µg/mL; Antimicrobial Activity MIC (μg/ml) B. cereus (B. cereus; Table 2): 25 µg/mL; Antimicrobial Activity MIC (μg/ml) P. aeruginosa (P. aeruginosa; Table 2): 12.5 µg/mL; Antimicrobial Activity MIC (μg/ml) MRSA (MRSA; Table 2): >50 µg/mL; Antimicrobial Activity MIC (μg/ml) S. Aureus (S. Aureus; Table 2): 50 µg/mL
CC(C)C[C@H](NC(=O)[C@H](CC(C)C)NC(=O)[C@H](CCCNC(=N)N)NC(=O)[C@H](Cc1c[nH]cn1)NC(=O)[C@@H](NC(=O)[C@H](CCCNC(=N)N)NC(=O)CNC(=O)[C@@H](NC(=O)[C@@H]1CCCN1C(=O)[C@H](Cc1c[nH]c2ccccc12)NC(=O)[C@H](CCC(N)=O)NC(=O)[C@]1(C)CCCC=CCCC[C@](C)(NC(=O)[C@H](CO)NC(=O)[C@H](CCCNC(=N)N)NC(=O)[C@@H](N)[C@@H](C)O)C(=O)N[C@@H](CCCNC(=N)N)C(=O)N[C@@H](C)C(=O)NCC(=O)N1)C(C)C)C(C)C)C(=O)N[C@@H](CCCNC(=N)N)C(=O)N[C@@H](CCCCN)C(N)=O [BFStap(i + 4)10] (H-TRS[S5]RAG[S5]QWPVGRVHRLLRK-NH2; staple 4-8; N-terminus and C-terminus assumed)	2.4	20.9	100	–
CC(C)C[C@H](NC(=O)[C@H](CC(C)C)NC(=O)[C@H](CCCNC(=N)N)NC(=O)[C@H](Cc1c[nH]cn1)NC(=O)[C@@H](NC(=O)[C@H](CCCNC(=N)N)NC(=O)CNC(=O)[C@@H](NC(=O)[C@@H]1CCCN1C(=O)[C@H](Cc1c[nH]c2ccccc12)NC(=O)[C@H](CCC(N)=O)NC(=O)[C@]1(C)CCCC=CCCCCCC[C@@](C)(N)C(=O)N[C@@H](CCCNC(=N)N)C(=O)N[C@@H](CO)C(=O)N[C@@H](CO)C(=O)N[C@@H](CCCNC(=N)N)C(=O)N[C@@H](C)C(=O)NCC(=O)N1)C(C)C)C(C)C)C(=O)N[C@@H](CCCNC(=N)N)C(=O)N[C@@H](CCCCN)C(N)=O [BFStap(i + 7)10] (H-[R8]RSSRAG[S5]QWPVGRVHRLLRK-NH2; staple 1-8)	2.3	0	>100	–
CC(C)C[C@@H]1NC(=O)CNC(=O)[C@H](C)NC(=O)[C@H](CCCNC(=N)N)NC(=O)[C@H](CO)NC(=O)[C@H](CO)NC(=O)[C@](C)(NC(=O)[C@@H](N)[C@@H](C)O)CCCCCCC=CCCC[C@@](C)(C(=O)N[C@@H](Cc2c[nH]c3ccccc23)C(=O)N2CCC[C@H]2C(=O)N[C@H](C(=O)NCC(=O)N[C@@H](CCCNC(=N)N)C(=O)N[C@H](C(=O)N[C@@H](Cc2c[nH]cn2)C(=O)N[C@@H](CCCNC(=N)N)C(=O)N[C@@H](CC(C)C)C(=O)N[C@@H](CC(C)C)C(=O)N[C@@H](CCCNC(=N)N)C(=O)N[C@@H](CCCCN)C(N)=O)C(C)C)C(C)C)NC1=O [BFStap(i + 7)9] (H-T[R8]SSRAGL[S5]WPVGRVHRLLRK-NH2; staple 2-9; N-terminus and C-terminus assumed)	4.3	0	41.7	–
CC(C)C[C@@H]1NC(=O)CNC(=O)[C@H](C)NC(=O)[C@@](C)(NC(=O)[C@H](CO)NC(=O)[C@H](CO)NC(=O)[C@H](CCCNC(=N)N)NC(=O)[C@@H](N)[C@@H](C)O)CCCC=CCCC[C@@](C)(C(=O)N[C@@H](Cc2c[nH]c3ccccc23)C(=O)N2CCC[C@H]2C(=O)N[C@H](C(=O)NCC(=O)N[C@@H](CCCNC(=N)N)C(=O)N[C@H](C(=O)N[C@@H](Cc2c[nH]cn2)C(=O)N[C@@H](CCCNC(=N)N)C(=O)N[C@@H](CC(C)C)C(=O)N[C@@H](CC(C)C)C(=O)N[C@@H](CCCNC(=N)N)C(=O)N[C@@H](CCCCN)C(N)=O)C(C)C)C(C)C)NC1=O [BFStap(i + 4)9] (H-TRSS[S5]AGL[S5]WPVGRVHRLLRK-NH2; staple 5-9; N-terminus and C-terminus assumed)	2.5	11.7	50.0	–

Reference: US12391733B2, “Stapled intracellular-targeting antimicrobial peptides to treat infection” (priority 2016, dated 2025)
